From patent publication US11912693B2, “Compounds for modulating S1P1 activity and methods of using the same” (TREVENA, INC., priority 2017, dated 2024)

What was measured:
[1] = biological target: T1, human sphingosine-1-phosphate receptor 1 (S1P1) (Homo sapiens (Human), UniProt P21453); test: Inhibition of cAMP production (HTRF cAMP HiRange), S1P1 CHO-K1 cells; type: cell-based; conditions: for hS1P1 cAMP pEC50: inhibition of cAMP production, S1P1 CHO-K1 cells; for Emax: CHO-K1, efficacy (SPAN) normalized to fingolimod, read-out: hS1P1 cAMP SPAN
In short: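 CHO-K1 cells stably co-expressing human S1P1 (C-terminal Prolink tag) and EA-β-arrestin2 were grown in AssayComplete Media 6 at 37° C. and 5% CO2, plated, and incubated overnight. Agonist-driven inhibition of intracellular cAMP was read by TR-FRET with the HTRF cAMP HiRange kit on a PheraStar reader. Potency is pEC50, and efficacy (SPAN) is normalized to fingolimod.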
Target sequence in this assay (P21453 whole entry, looked up): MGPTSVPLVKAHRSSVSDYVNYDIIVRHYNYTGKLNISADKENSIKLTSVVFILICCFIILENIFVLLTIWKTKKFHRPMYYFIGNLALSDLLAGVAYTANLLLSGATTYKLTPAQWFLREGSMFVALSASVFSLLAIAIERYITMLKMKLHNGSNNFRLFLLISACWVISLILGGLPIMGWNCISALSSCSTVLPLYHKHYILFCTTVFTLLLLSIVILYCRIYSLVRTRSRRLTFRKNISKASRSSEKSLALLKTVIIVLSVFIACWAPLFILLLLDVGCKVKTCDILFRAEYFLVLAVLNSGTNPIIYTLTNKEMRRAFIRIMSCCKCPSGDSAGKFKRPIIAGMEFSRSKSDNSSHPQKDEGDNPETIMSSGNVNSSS

[2] = biological target: T1, human sphingosine-1-phosphate receptor 1 (S1P1); test: β-Arrestin2 recruitment assay (PathHunter), S1P1 CHO-K1 cells; type: cell-based; conditions: for hS1P1 B-arrestin2 pEC50: β-arrestin2 recruitment, S1P1 CHO-K1 cells; for Emax: CHO-K1, efficacy (SPAN) normalized to fingolimod, read-out: hS1P1 B-arrestin2 SPAN
In short: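 Enzyme-fragment complementation read-out: agonist-driven β-arrestin2 binding to ProLink-tagged human S1P1 in stable CHO-K1 cells restores β-galactosidase, measured 1 h at room temperature after a 60 min 37° C. compound incubation. Potency as pEC50, efficacy relative to fingolimod (SPAN).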
Target sequence in this assay (P21453 whole entry, looked up): as above
Target sequence in this assay (P32121 whole entry partner, looked up): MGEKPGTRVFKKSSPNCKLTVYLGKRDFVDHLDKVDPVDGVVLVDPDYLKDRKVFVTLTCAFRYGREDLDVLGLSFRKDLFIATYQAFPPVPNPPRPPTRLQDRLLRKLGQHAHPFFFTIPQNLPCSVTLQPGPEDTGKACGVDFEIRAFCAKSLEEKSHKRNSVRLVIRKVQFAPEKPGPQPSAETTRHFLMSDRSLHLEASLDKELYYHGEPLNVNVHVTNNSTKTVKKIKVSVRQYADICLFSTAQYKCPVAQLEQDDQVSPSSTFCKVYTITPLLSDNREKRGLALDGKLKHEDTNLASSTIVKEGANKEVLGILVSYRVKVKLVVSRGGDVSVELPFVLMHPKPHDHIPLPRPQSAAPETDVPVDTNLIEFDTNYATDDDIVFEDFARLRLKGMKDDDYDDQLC

CC(C)n1ccc2cc(-c3noc(-c4ccncc4)n3)ccc21 [Compound 395, 3-(1-isopropyl-1H-indol-5-yl)-5-(pyridin-4-yl)-1,2,4-oxadiazole]
hS1P1 cAMP pEC50 [1]: >6.5 | hS1P1 B-arrestin2 pEC50 [2]: >5

CC(C)n1ccc2cc(-c3noc(-c4cccnc4)n3)ccc21 [Compound 396, 3-(1-isopropyl-1H-indol-5-yl)-5-(pyridin-3-yl)-1,2,4-oxadiazole]
hS1P1 cAMP pEC50 [1]: <6.5 | hS1P1 B-arrestin2 pEC50 [2]: <5

CC(C)n1ccc2cc(-c3noc(-c4ccccn4)n3)ccc21 [Compound 397, 3-(1-isopropyl-1H-indol-5-yl)-5-(pyridin-2-yl)-1,2,4-oxadiazole]
hS1P1 cAMP pEC50 [1]: <6.5 | hS1P1 B-arrestin2 pEC50 [2]: <5

CC(C)n1ccc2cc(-c3noc(-c4ccncc4F)n3)ccc21 [Compound 399, 5-(3-fluoropyridin-4-yl)-3-(1-isopropyl-1H-indol-5-yl)-1,2,4-oxadiazole]
hS1P1 cAMP pEC50 [1]: >6.5 | hS1P1 B-arrestin2 pEC50 [2]: >5

CC(C)n1ccc2cc(-c3noc(-c4ccc(F)cc4)n3)ccc21 [Compound 400, 5-(4-fluorophenyl)-3-(1-isopropyl-1H-indol-5-yl)-1,2,4-oxadiazole]
hS1P1 cAMP pEC50 [1]: <6.5 | hS1P1 B-arrestin2 pEC50 [2]: <5

COc1ccccc1-c1csc(-c2cnc3c(ccn3C(C)C)c2)n1 [Compound 401, 2-(1-isopropyl-1H-pyrrolo[2,3-b]pyridin-5-yl)-4-(2-methoxyphenyl)thiazole]
hS1P1 cAMP pEC50 [1]: <6.5 | hS1P1 B-arrestin2 pEC50 [2]: <5

CC(C)n1ccc2cc(-c3nc(-c4ccccc4F)cs3)cnc21 [Compound 402, 4-(2-fluorophenyl)-2-(1-isopropyl-1H-pyrrolo[2,3-b]pyridin-5-yl)thiazole]
hS1P1 cAMP pEC50 [1]: >6.5 | hS1P1 B-arrestin2 pEC50 [2]: <5

CC(C)n1ccc2cc(-c3nc(-c4ccccc4F)cs3)ccc21 [Compound 403, 4-(2-fluorophenyl)-2-(1-isopropylindol-5-yl)thiazole]
Emax [1]: < 75% | hS1P1 cAMP pEC50 [1]: <6.5 | Emax [2]: < 75% | hS1P1 B-arrestin2 pEC50 [2]: <5

CC(C)n1ccc2cc(-c3nc(-c4ccccc4C(F)(F)F)cs3)ccc21 [Compound 404, 2-(1-isopropylindol-5-yl)-4-[2-(trifluoromethyl)phenyl]thiazole]
Emax [1]: > 75% | hS1P1 cAMP pEC50 [1]: <6.5 | Emax [2]: < 75% | hS1P1 B-arrestin2 pEC50 [2]: <5

COc1cccc(-c2csc(-c3ccc4c(ccn4C(C)C)c3)n2)c1 [Compound 405, 2-(1-isopropylindol-5-yl)-4-(3-methoxyphenyl)thiazole]
hS1P1 cAMP pEC50 [1]: <6.5 | hS1P1 B-arrestin2 pEC50 [2]: <5

Cc1ccccc1-c1csc(-c2cnc3c(ccn3C(C)C)c2)n1 [Compound 407, 2-(1-isopropylpyrrolo[2,3-b]pyridin-5-yl)-4-(o-tolyl)thiazole]
hS1P1 cAMP pEC50 [1]: <6.5 | hS1P1 B-arrestin2 pEC50 [2]: <5

CC(C)n1ccc2cc(-c3nc(-c4ccccc4C(F)(F)F)cs3)cnc21 [Compound 408, 2-(1-isopropylpyrrolo[2,3-b]pyridin-5-yl)-4-[2-(trifluoromethyl)phenyl]thiazole]
hS1P1 cAMP pEC50 [1]: <6.5 | hS1P1 B-arrestin2 pEC50 [2]: <5

Cc1ccccc1-c1csc(-c2ccc3c(ccn3C(C)C)n2)n1 [Compound 409, 2-(1-isopropylpyrrolo[3,2-b]pyridin-5-yl)-4-(o-tolyl)thiazole]
hS1P1 cAMP pEC50 [1]: <6.5 | hS1P1 B-arrestin2 pEC50 [2]: <5

COc1cccc(-c2csc(-c3ccc4c(ccn4C(C)C)n3)n2)c1 [Compound 410, 2-(1-isopropylpyrrolo[3,2-b]pyridin-5-yl)-4-(3-methoxyphenyl)thiazole]
hS1P1 cAMP pEC50 [1]: <6.5 | hS1P1 B-arrestin2 pEC50 [2]: <5

COc1ccccc1-c1csc(-c2ccc3c(ccn3C(C)C)n2)n1 [Compound 411, 2-(1-isopropyl-1H-pyrrolo[3,2-b]pyridin-5-yl)-4-(2-methoxyphenyl)thiazole]
hS1P1 cAMP pEC50 [1]: <6.5 | hS1P1 B-arrestin2 pEC50 [2]: <5

CC(C)n1ccc2nc(-c3nc(-c4ccccc4Br)cs3)ccc21 [Compound 412, 4-(2-bromophenyl)-2-(1-isopropyl-1H-pyrrolo[3,2-b]pyridin-5-yl)thiazole]
hS1P1 cAMP pEC50 [1]: <6.5 | hS1P1 B-arrestin2 pEC50 [2]: <5

CC(C)n1nnc2cc(-c3nc(-c4ccccc4Br)no3)cnc21 [Compound 413, 3-(2-bromophenyl)-5-[3-(propan-2-yl)-3H-[1,2,3]triazolo[4,5-b]pyridin-6-yl]-1,2,4-oxadiazole]
hS1P1 cAMP pEC50 [1]: >6.5 | hS1P1 B-arrestin2 pEC50 [2]: >5

Cc1ccncc1-c1noc(-c2cnc3c(c2)nnn3C(C)C)n1 [Compound 414, 4-methyl-3-{5-[3-(propan-2-yl)-3H-[1,2,3]triazolo[4,5-b]pyridin-6-yl]-1,2,4-oxadiazol-3-yl}pyridine]
hS1P1 cAMP pEC50 [1]: >6.5 | hS1P1 B-arrestin2 pEC50 [2]: <5

CCC1(CC)CC(=O)c2cc(-c3nc(-c4ccc5c(c4)CC(=O)N5)no3)ccc2O1 [Compound 416, 5-(5-(2,2-diethyl-4-oxochroman-6-yl)-1,2,4-oxadiazol-3-yl)indolin-2-one]
hS1P1 cAMP pEC50 [1]: >6.5 | hS1P1 B-arrestin2 pEC50 [2]: >5

Cc1cccc2oc(-c3ccc4c(c3)nnn4C(C)C)nc12 [Compound 418, 2-(1-isopropyl-1H-benzo[d][1,2,3]triazol-5-yl)-4-methylbenzo[d]oxazole]
Emax [1]: > 75% | hS1P1 cAMP pEC50 [1]: >6.5 | Emax [2]: > 75% | hS1P1 B-arrestin2 pEC50 [2]: >5

Cc1ccc2oc(-c3ccc4c(c3)nnn4C(C)C)nc2c1 [Compound 419, 2-(1-isopropyl-1H-benzo[d][1,2,3]triazol-5-yl)-5-methylbenzo[d]oxazole]
Emax [1]: > 75% | hS1P1 cAMP pEC50 [1]: >6.5 | Emax [2]: < 75% | hS1P1 B-arrestin2 pEC50 [2]: >5

Cc1ccc2nc(-c3ccc4c(c3)nnn4C(C)C)oc2c1 [Compound 420, 2-(1-isopropyl-1H-benzo[d][1,2,3]triazol-5-yl)-6-methylbenzo[d]oxazole]
Emax [1]: > 75% | hS1P1 cAMP pEC50 [1]: >6.5 | Emax [2]: > 75% | hS1P1 B-arrestin2 pEC50 [2]: <5

Cc1cccc2nc(-c3ccc4c(c3)nnn4C(C)C)oc12 [Compound 421, 2-(1-isopropyl-1H-benzo[d][1,2,3]triazol-5-yl)-7-methylbenzo[d]oxazole]
Emax [1]: > 75% | hS1P1 cAMP pEC50 [1]: <6.5 | Emax [2]: < 75% | hS1P1 B-arrestin2 pEC50 [2]: <5

COc1cccc2oc(-c3ccc4c(c3)nnn4C(C)C)nc12 [Compound 424, 2-(1-isopropyl-1H-benzo[d][1,2,3]triazol-5-yl)-4-methoxybenzo[d]oxazole]
Emax [1]: > 75% | hS1P1 cAMP pEC50 [1]: >6.5 | Emax [2]: > 75% | hS1P1 B-arrestin2 pEC50 [2]: <5

COc1ccc2nc(-c3ccc4c(c3)nnn4C(C)C)oc2c1 [Compound 426, 2-(1-isopropyl-1H-benzo[d][1,2,3]triazol-5-yl)-6-methoxybenzo[d]oxazole]
Emax [1]: > 75% | hS1P1 cAMP pEC50 [1]: >6.5 | Emax [2]: > 75% | hS1P1 B-arrestin2 pEC50 [2]: <5

CC(C)n1nnc2cc(-c3nc4c(Cl)cccc4o3)ccc21 [Compound 427, 4-chloro-2-(1-isopropyl-1H-benzo[d][1,2,3]triazol-5-yl)benzo[d]oxazole]
Emax [1]: > 75% | hS1P1 cAMP pEC50 [1]: <6.5 | Emax [2]: > 75% | hS1P1 B-arrestin2 pEC50 [2]: <5

CC(C)n1nnc2cc(-c3nc4c(Br)cccc4o3)ccc21 [Compound 428, 4-bromo-2-(1-isopropylbenzotriazol-5-yl)-1,3-benzoxazole]
Emax [1]: > 75% | hS1P1 cAMP pEC50 [1]: <6.5 | Emax [2]: > 75% | hS1P1 B-arrestin2 pEC50 [2]: <5

CC(C)n1nnc2cc(-c3nc4cccc(Br)c4o3)ccc21 [Compound 429, 7-bromo-2-(1-isopropyl-1H-benzo[d][1,2,3]triazol-5-yl)benzo[d]oxazole]
hS1P1 cAMP pEC50 [1]: <6.5 | hS1P1 B-arrestin2 pEC50 [2]: <5

CCC1(CC)C/C(=N/O)c2cc(-c3nc(-c4cccnc4)no3)ccc2O1 [Compound 430, N-[(4Z)-2,2-diethyl-6-[3-(pyridin-3-yl)-1,2,4-oxadiazol-5-yl]-3,4-dihydro-2H-1-benzopyran-4-ylidene]hydroxylamine]
hS1P1 cAMP pEC50 [1]: <6.5 | hS1P1 B-arrestin2 pEC50 [2]: <5

CCC1(CC)C/C(=N\O)c2cc(-c3nc(-c4cccnc4)no3)ccc2O1 [Compound 431, N-[(4E)-2,2-diethyl-6-[3-(pyridin-3-yl)-1,2,4-oxadiazol-5-yl]-3,4-dihydro-2H-1-benzopyran-4-ylidene]hydroxylamine]
hS1P1 cAMP pEC50 [1]: <6.5 | hS1P1 B-arrestin2 pEC50 [2]: <5

CC(C)n1nnc2cc(-c3nc(-c4ccccc4C(F)(F)F)co3)ccc21 [Compound 432, 1-(propan-2-yl)-5-{4-[2-(trifluoromethyl)phenyl]-1,3-oxazol-2-yl}-1H-1,2,3-benzotriazole]
Emax [1]: > 75% | hS1P1 cAMP pEC50 [1]: >6.5 | Emax [2]: > 75% | hS1P1 B-arrestin2 pEC50 [2]: >5

Cc1ccccc1-c1coc(-c2ccc3c(c2)nnn3C(C)C)n1 [Compound 433, 5-[4-(2-methylphenyl)-1,3-oxazol-2-yl]-1-(propan-2-yl)-1H-1,2,3-benzotriazole]
Emax [1]: > 75% | hS1P1 cAMP pEC50 [1]: >6.5 | Emax [2]: > 75% | hS1P1 B-arrestin2 pEC50 [2]: >5

CC(C)n1nnc2cc(-c3nc4c(o3)CCCc3ccccc3-4)ccc21 [Compound 434, 4-[1-(propan-2-yl)-1H-1,2,3-benzotriazol-5-yl]-5-oxa-3-azatricyclo[8.4.0.0^2,6]tetradeca-1(14),2(6),3,10,12-pentaene]
Emax [1]: < 75% | hS1P1 cAMP pEC50 [1]: <6.5 | Emax [2]: > 75% | hS1P1 B-arrestin2 pEC50 [2]: <5
